# Test results taken from the METLIN SMRT retention time set (Domingo-Almenara et al. 2019).
# Test: gradient 5% acetonitrile 3 min, to 50% in 2 min, to 85% in 15 min, held 3 min, 100 µL/min
# Conditions: column: Zorbax Extend-C18 2.1 x 50 mm; eluents: water / acetonitrile, 0.1% formic acid
# Summary of the method: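 Pure standards were run in mixtures of ~100 molecules by HPLC coupled to a quadrupole time-of-flight mass spectrometer. The column was a Zorbax Extend-C18 (2.1 × 50 mm, 1.8 μm) at 100 μL/min, with water and acetonitrile each containing 0.1% formic acid, in positive and negative ionization mode. Dead and dwell volumes were 40 μL and 900 μL. Retention time was taken from computationally picked adduct peaks, each manually inspected, with data collected over 3 months.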
row,SMILES,RP-LC retention time
1,CSc1ccccc1NC(=O)C(=O)NCC1(CO)CC1,727 s
2,Cc1ccc2nc(C3CN(C(=O)COc4ccc(Cl)cc4Cl)C3)[nH]c2c1,610 s
3,CCCNC(=O)CCc1nc2ccccc2n(CC(=O)Nc2cccc(SC)c2)c1=O,819 s
4,COc1cccc(N2CCN(S(=O)(=O)c3cc(-c4cc(C(F)(F)F)[nH]n4)sc3C)CC2)c1,1120 s
5,Cc1ccn2cc(-c3ccc(C)c(NS(=O)(=O)c4ccc(C)c(C)c4)c3)nc2c1,729 s
6,COc1ccc(C(=O)Nc2nc(-c3ccccc3)cs2)cc1OC,961 s
7,Cc1cc(N(C)C)n2nc(-c3ccc(Cl)cc3)c(C)c2n1,744 s
8,COc1ccc(Cl)cc1NC(=O)C1CCN(S(C)(=O)=O)c2ccccc2O1 (stereo not given),1030 s
9,CCCC(=O)OCC1OC(n2ccc(N)nc2=O)C(OC(=O)CCC)C1OC(=O)CCC (stereo not given),738 s
10,COc1ccc(OC)c(NC(=O)c2[nH]c3cc(C)sc3c2CN2CCOCC2)c1,705 s
11,CCC1Oc2ccc(S(=O)(=O)N3CCC(C(=O)NC4CCCCCC4)CC3)cc2NC1=O (stereo not given),951 s
12,Cc1ccc(CNC(=O)c2c(C)oc3nc(C)nc(N4CCOCC4)c23)cc1,787 s
13,C=CCN(Cc1nc(-c2cccc(C)c2)no1)C(=O)Nc1ccccc1OC,1120 s
14,O=C(NCc1ccc(F)cc1Cl)c1csc(C(=O)NC2CCCC2)n1,968 s
15,CCOC(=O)C(C)(C)Sc1nnc(N2CCN(c3ccccc3)CC2)s1,997 s
16,COc1ccc(NC2=NS(=O)(=O)C(c3ccc(OC)cc3)=C2C)cc1,910 s
17,O=C(NCc1ccc(F)c(Cl)c1)c1csc(C(=O)NC2CCCC2)n1,976 s
18,C=CCN(Cc1nc(-c2ccc(C)cc2)no1)C(=O)Nc1ccccc1C,650 s
19,Cc1cc(NC(=O)NCCCSc2nc3ccccc3s2)no1,805 s
20,O=C1CC(c2ccccc2)N(Cc2ccc3c(c2)CCO3)CCCCCCN1 (stereo not given),668 s

row,SMILES,RP-LC retention time
1,CCNC(=O)c1nc2ccccc2n(CC)c1=O,659 s
2,COc1ccc(-c2ccnc3nc(-c4cccs4)nn23)cc1OC,832 s
3,O=C1CC(c2noc(-c3ccc4c(c3)OCO4)n2)CN1c1ccc(F)c(Cl)c1 (stereo not given),1010 s
4,O=c1c2cc(-c3ccc(F)cc3)nn2ccn1Cc1nc(-c2cccc(F)c2)no1,1060 s
5,Cc1cc(C(N)=O)c(C)n1Cc1ccc(F)cc1,752 s
6,O=C(NCCC1CCN(C(=O)Nc2ccc(F)cc2F)CC1)C1CCC1,720 s
7,Cc1cc(S(=O)(=O)N2CCC(OCc3noc(C4CCCO4)n3)CC2)ccc1Cl (stereo not given),1040 s
8,O=C1CSC(c2ccccc2Cl)c2cc(Cl)ccc2N1 (stereo not given),987 s
9,CC1(C)C(=O)Nc2ccc(S(=O)(=O)N3CCC(c4noc(-c5ccncc5)n4)C3)cc21 (stereo not given),700 s
10,CCOC(=O)Cn1c(-c2nnc(C)o2)cc2ccccc21,827 s
11,COc1c(C)cc(S(=O)(=O)NCCN2CCOCC2)c(C)c1C,568 s
12,O=C(NCc1ccccc1F)C1=C2CCCN2c2ccccc2S1(=O)=O,818 s
13,CCn1cc(S(=O)(=O)N2CCCn3nc(-c4cccs4)cc3C2)cn1,816 s
14,COc1ccc(C2C(C(=O)C3CC3)=C(O)C(=O)N2CCCOC(C)C)cc1OC (stereo not given),736 s
15,COc1ccc(OC)c(-c2cn3ccn(-c4ccc(Br)cc4)c(=O)c3n2)c1,912 s
16,O=C(/C=C/c1ccccc1)NC(NC(=S)Nc1cccc2cccnc12)C(Cl)(Cl)Cl (stereo not given),1020 s
17,COc1ccc(OC)c(Nc2c(-c3nc(C)no3)cnc3nc(C)ccc23)c1,610 s
18,COc1ccc(OC)c(C(O)CN2CCC(c3nc(C)no3)CC2)c1 (stereo not given),574 s
19,CCOc1cccc(-c2noc(-c3nn(-c4ccc(C)c(C)c4)ccc3=O)n2)c1,1060 s

# The remaining lines, values ahead:
row,RP-LC retention time,SMILES
1,724 s,CCCC(=O)Nc1ccc2c(c1)Sc1ncccc1C(=O)N2CC
2,622 s,CCN1CCCC1CNC(=O)c1nc(CCS(=O)(=O)c2ccc(OC)cc2)no1 (stereo not given)
3,1060 s,Cn1cc(C2=CCN(S(=O)(=O)c3cccc(Cl)c3)CC2)c2cccnc21
4,1050 s,CCc1ccc(CNC(=O)CN2CCc3ccccc3C2C(=O)N2CCC(C)CC2)cc1 (stereo not given)
5,863 s,CCCn1cc(CCNC(=O)Nc2cc(Cl)ccc2C)c2cccnc21
6,604 s,CNC(=O)[C@@H]1CN(C(=O)Cc2ccc(Br)cc2)C[C@H]1CO
7,1080 s,O=C(Nc1ccc(Cl)cc1)c1oc2ccccc2c1NC(=O)C1CC1
8,1330 s,COc1cccc(-n2c(=O)c(C(=O)Nc3cccc(Cl)c3)c(O)c3cccnc32)c1
9,935 s,CCOc1ccc(C(C)NC(=O)c2cn3nc(OCC)ccc3n2)cc1 (stereo not given)
10,581 s,c1cc(-c2nc(-c3ccc4c(c3)ncn4CCN3CCCCC3)no2)ccn1
11,1130 s,Cc1ccc(C)c(N2CCN(c3ccnc(SCC(=O)Nc4ccccc4Cl)n3)CC2)c1
12,794 s,CC(=O)Nc1ccc(Nc2nc3ccccc3nc2NS(=O)(=O)c2cccs2)cc1
13,678 s,CCOc1ccc(C2c3[nH]c4ccccc4c3CCN2C(=O)c2ccnn2C)cc1 (stereo not given)
14,614 s,CNC(=O)N1CCc2nn(Cc3ccccc3)c(=O)n2CC1
15,814 s,Cc1cccc(NC(=O)Cn2ccc3ccc(-c4nnc(C)o4)cc32)c1
16,703 s,CC(=O)Nc1cccc(N2CC(C(=O)NCc3cccc(Br)c3)CC2=O)c1 (stereo not given)
17,622 s,NS(=O)(=O)c1ccc(CCNC(=O)c2csc(-c3cnccn3)n2)cc1
18,606 s,O=C(Nc1cccc(F)c1)N1CCN(c2cc(-c3ccncc3)[nH]n2)CC1
19,930 s,CC1(C)C(=O)N(CC(=O)N2CCc3ccccc3C2)c2ccccc21
20,828 s,Cc1nn(Cc2nc(-c3ccc(NC(=O)c4ccco4)cc3)oc2C)c(C)c1C
21,746 s,COc1ccc(-c2nc(CNC(=O)Cn3cnc(-c4cccs4)cc3=O)cs2)cc1
22,738 s,COC(=O)c1ncn2c1C(=O)N(CCc1ccccc1)C(C)(C(=O)NC1CCCC1)C2 (stereo not given)
23,943 s,CCCn1cc(C2=CCN(C(=O)NC3CCCCC3)CC2)c2cccnc21
24,904 s,CCCn1cc(CCNS(=O)(=O)c2ccccc2C(F)(F)F)c2cccnc21
25,630 s,O=C(CC1CCN(C(=O)c2ccc3oc(-c4ccccc4)nc3c2)CC1)NCCN1CCOCC1
26,773 s,O=c1ccc(N2CCC(NS(=O)(=O)c3cccc(F)c3)C2)nn1CC1CC1 (stereo not given)

row,RP-LC retention time,SMILES
1,696 s,CCc1cc(=O)n(Cc2ccccc2C#N)c(N2CCCC2)n1
2,649 s,Cc1nnc2c(=O)n(CC(=O)NCc3ccccc3F)c3cccnc3n12
3,709 s,CCOc1ccc(CNC(=O)C2CCCN(c3cc(=O)n(C)c(=O)n3C)C2)cc1 (stereo not given)
4,613 s,O=C(Nc1ccc2c(c1)OCO2)N1CCN(c2ccc3nnc(C4CC4)n3n2)CC1
5,712 s,CCOc1ccc(C(C)NC(=O)C2CCCN(c3cnc4nccnc4c3)C2)cc1 (stereo not given)
6,691 s,COCCN(C)Cc1ccc(CC2CCN(C(=O)C3(c4ccc(OC)cc4)CC3)CC2)cc1
7,858 s,COc1cccc(NC(=O)Cn2nc3c(Oc4cccc(Cl)c4)nccn3c2=O)c1
8,1020 s,CCc1ccccc1NC(=O)C1CCCN(S(=O)(=O)c2ccc(OC)c(C)c2)C1 (stereo not given)
9,734 s,Cc1cccc(NC(=O)NCC(O)Cc2ccccc2)c1 (stereo not given)
10,733 s,CCc1ccc(NC(=O)N2CCCC(Cn3cnc4cccnc43)C2)cc1 (stereo not given)
11,713 s,O=C(CCc1ccccc1)Nc1ccc2[nH]c(=O)oc2c1
12,827 s,CC1=C(c2ccccc2)S(=O)(=O)N=C1N1CCCN(C(=O)c2cc(F)ccc2F)CC1
13,1120 s,CCc1ccc(Oc2cc(N3CCC(C(=O)NC4CCC(C)CC4)CC3)ncn2)cc1 (stereo not given)
14,1020 s,O=C(O)Cc1sc(Nc2ccc(Br)cc2)nc1-c1ccccc1
15,602 s,CN1CCC(NC(=O)c2ncoc2-c2ccccc2)CC1
16,653 s,CCC1CCCCN1C(=O)c1cnc2nc(C)ccc2c1Nc1cccc(C(=O)OC)c1 (stereo not given)
17,1080 s,CCc1ccc(-c2ccc(=O)n(Cc3nc(-c4ccc5c(c4)OCO5)no3)n2)cc1
18,727 s,CCC(C(=O)N1CCN(c2ccc3nnc(-c4ccco4)n3n2)CC1)c1ccccc1 (stereo not given)
19,718 s,O=C1C(N2CCCN(S(=O)(=O)c3cccc(Cl)c3)CC2)CCN1Cc1ccccc1 (stereo not given)
20,627 s,Cc1cccc(NC(=O)N2CCN(c3cnn4c(C)nnc4c3)CC2)c1
21,738 s,O=C(Nc1ccccc1)N1CCOC(CN(CC2CCCO2)C(=O)c2ccc3c(c2)OCO3)C1 (stereo not given)
22,974 s,Cc1cccc(-c2noc(C3CCCN3C(=O)NCc3ccc(F)cc3)n2)c1 (stereo not given)
23,704 s,CCC(=O)Nc1sc2c(c1C(=O)Nc1ccccc1)CCCC2
24,541 s,Cc1nc(-c2ccncc2)nc2c1CCC(=O)N2CCc1ccccn1
25,560 s,COc1ccc(NC(=O)N2CC3CN(C)CC(C2)O3)cc1
